As usually defined, the mortality is the share of the test organisms that died.

Common to all, as to assay type: in vivo
Assay [1] deals with Brown Planthopper (Nilaparvata lugens). Briefly: Test (foliar dipping) for controlling brown planthopper. To be noted: 120 h, rice seedlings dipped, 5 days after treatment; for mortality at 200 ppm: third instar larvae. As for the experimental part:
[…] After air-drying, the rice seedlings held with urethane in a glass cylinder having an inner diameter of 4.5 cm and a length of 14 cm were set up in a plastic cup containing 40 mL of water. Larvae of brown planthoppers in the third instar larva were released there. The cylinder was covered with a lid of medicine paper and kept in a chamber at a constant temperature of 25° C. for rearing.

The test system of assay [2] is Inedorooimushi (Oulema oryzae). The assay can be described thus: Test (pot test) for controlling inedorooimushi. To be noted: larvae released 20 days after treatment, 2 days after release. How it is done:
The roots of five sampled rice seedlings were washed with water. The wettable powder prepared in accordance with Formulation Example 2 described above was wrapped in the roots to be planted in a Wagner pot of 1/10000 a. After 20 days from the treatment, 3 larvae of inedorooimushi in the late instar larva were released per strain and reared in a plastic greenhouse with a room temperature set at 25° C. On 2 days after the releasing of the insects, the mortality of the insect was calculated.

Assay [3] deals with Sweetpotato whitefly (Bemisia tabaci). Briefly: Test (foliar spraying) for controlling sweetpotato whitefly. Conditions: 120 h, foliar spraying on cucumber leaf, female adults, 5 days after treatment. How it is done: A cucumber leaf cut to a diameter of 6.0 cm was placed on cotton wool moistened with water. The diluent of the test compounds diluted to 200 ppm in an amount of 2 mL was sprayed onto the cucumber leaves with a spray tower. After air-drying, the cucumber leaf was placed in a plastic cup, and 20 female adult sweetpotato whiteflies were released there. The cup was covered with a lid and kept in a chamber at a constant temperature of 25° C. for rearing.

Assay [4] concerns Southern Yellow thrips (Thrips palmi). The assay can be described thus: Test (foliar spraying) for controlling southern yellow thrips. Conditions: 72 h; 200 ppm, foliar spraying on cucumber leaf, first instar larvae, 3 days after treatment. As for the experimental part:
A cucumber leaf cut to a diameter of 1.5 cm was placed on cotton wool moistened with water. […] After air-drying, 5 larvae of southern yellow thrips in the first instar larva were released there. The sample with cotton wool was placed in a plastic cup, which was covered with a lid and kept in a chamber at a constant temperature of 25° C. for rearing.

Assay [5] has as its system Rice Leaf Beetle (Oulema oryzae). Briefly: Test (root dipping) for controlling rice leaf beetle. To be noted: 4 days after treatment. How it is done:
Ten sampled rice seedlings held with urethane in a glass cylinder having an inner diameter of 4.5 cm and a length of 14 cm were set up in a plastic cup containing 40 mL of chemical solution diluted to a desired concentration. After 2 days, 4 larvae of rice leaf beetle in the late instar larva were released in the glass cylinder. The glass cylinder was covered with a lid of medicine paper and kept in a chamber at a constant temperature of 25° C. for rearing.

Assay [6] concerns Brown Planthopper (Nilaparvata lugens). The assay can be described thus: Residual effect test (field experiment) for brown planthopper. As for the experimental part: The roots of five sampled rice seedlings were washed with water. Subsequently, 25 mg of the wettable powder prepared in accordance with Formulation Example 2 described above was wrapped in the roots. Each strain was made from the five seedlings. In outdoor artificial paddy fields made from wooden frames having a size of 60 cm by 90 cm, 10 strains were planted, respectively. The artificial paddy field was shielded by an insect screen with a mesh size of 1 mm, so that invasion of harmful insects from the outside was prevented. Into the test system, 40 to 100 adult brown planthoppers were released at fixed intervals so as to cause damage to the rice. On 16 to 51 days after the treatment, the numbers of surviving insects and dead insects were measured to calculate the density index. The density index was obtained from the following expression.

The subject of assay [7] is Rice Stem Borer (Chilo suppressalis). The assay can be described thus: Test (pot test) for controlling rice stem borer. Conditions: 14 days after treatment. As for the experimental part:
The roots of five sampled rice seedlings were washed with water. The wettable powder prepared in accordance with Formulation Example 2 described above was wrapped in the roots to be planted in a Wagner pot of 1/10000 a. After 4 days from the treatment, a total of […] of rice stem borer were released per strain and reared in a plastic greenhouse with a room temperature set at 25° C. On 14 days after the treatment, the ratio of browning stem of seedlings for each strain and the ratio to untreated ones were calculated. Double system.

In assay [8] the test system is Diamondback Moth (Plutella xylostella). The assay can be described thus: Test (foliar dipping) for controlling diamondback moth. To be noted: 72 h, foliar dipping of cabbage leaf, third instar larvae, 3 days after treatment. How it is done: A cabbage leaf cut to a diameter of 5.0 cm was dipped in the diluent of the test compounds diluted to 200 ppm in an amount of 20 mL and air-dried. After air-drying, the cabbage leaf was placed in a plastic cup, and 10 larvae of diamondback moths in the third instar larva were released there. The cup was covered with a lid and kept in a chamber at a constant temperature of 25° C. for rearing.

Assay [9] relates to Cotton Aphid (Aphis gossypii). The assay can be described thus: Test (foliar spraying) for controlling cotton aphid. Conditions: 120 h, 5 days after treatment; for mortality at 200 ppm: foliar spraying on cucumber leaf. As for the experimental part: A cucumber leaf cut to a diameter of 3.5 cm was placed on cotton wool moistened with water. Two adult cotton aphids were released there for offspring for 24 hours and the adult insects were then removed. […] After air-drying, the sample with cotton wool was placed in a plastic cup, which was covered with a lid and kept in a chamber at a constant temperature of 25° C. for rearing.

For assay [10], the system named is Brown Planthopper (Nilaparvata lugens). The assay can be described thus: Test (root dipping) for controlling brown planthopper. Conditions: 120 h, root dipping, 5 days after treatment. As for the experimental part:
Ten sampled rice seedlings held with urethane in a glass cylinder having an inner diameter of 4.5 cm and a length of 14 cm were set up in a plastic cup containing 40 mL of chemical solution diluted to a desired concentration. After 2 days, 10 larvae of brown planthoppers in the third instar larva were released in the glass cylinder. The glass cylinder was covered with a lid of medicine paper and kept in a chamber at a constant temperature of 25° C. for rearing.

Assay [11] deals with Brown Winged Green Stink Bug (Plautia stali). The assay can be described thus: Test (greenhouse test) for controlling brown winged green stink bug. To be noted: 100 ppm sprayed on apple fruit. How it is done:
Using a commercially available hand spray, a chemical solution diluted to a concentration of 100 ppm was sprayed onto an apple fruit (cultivar: Fuji). After air-drying, the apple fruit was placed in a plastic cup, which was allowed to stand still for a specified number of […] in a plastic greenhouse with a room temperature set at 25° C. and with the natural light shining thereon. On 7 days after the treatment, 5 adult brown winged green stink bugs (without distinction between male and female) were released onto the treated fruit. On 4 days after the release of insects, the numbers of death and abnormality were observed and recorded. Triple system. Also, the fruit after examination was immersed in an acidic 0.5% fuchsine solution for 30 minutes, and then washed with water to measure the total number of sapping scars.

Where [12] appears, read: 5 adults released 7 days after treatment, triple system, 4 days after release.

Where a name gives a salt, the structure may show the parent alone.

`Cc1cccc(-c2c([O-])[n+](CCC#N)c3ccccn3c2=O)c1` [Compound 3, 1-(2-cyanoethyl)-2-hydroxy-4-oxo-3-(3-toluyl)-4H-pyrido[1,2-a]pyrimidinium inner salt] showed a mortality at 0.01 ppm in assay [1] of 10%. Moreover, the mortality at 0.02 ppm in [1] came out at 40%. The results for the mortality at 0.05 ppm in assay [1] and in assay [10] (0.05 ppm) were 80% and 60%, respectively. For the same molecule, the mortality at 200 ppm in assay [1], in assay [3], in [4], in assay [8] and in assay [9] was at least 80% each time. For the same molecule, the mortality at 125 g/ha in [2] (125 g/ha) is 33.3%. Besides, the mortality at 250 g/ha in [2] (250 g/ha) was 50%. Further, the mortality at 500 g/ha in [2] (500 g/ha as wettable powder at rice roots) was found to be 100%. In assay [5] (1.6 ppm, root dipping of rice seedlings, late instar larvae released after 2 days), the mortality at 1.6 ppm came out at 100%. The mortality at 0.8 ppm is 100% in [5] (96 h, 0.8 ppm, root dipping) and 100% in assay [9] (0.8 ppm, foliar spraying). Moreover, the “Density index of Nilaparvata lugens” value in assay [6] (After 16 days, 25 mg wettable powder (Formulation Example 2) at roots per strain, outdoor artificial paddy field) came to 7.7; in assay [6] (After 23 days, 25 mg wettable powder at roots per strain, artificial paddy field), 0; in assay [6] (After 30 days, 25 mg wettable powder at roots per strain, artificial paddy field), 28.4; in assay [6] (After 37 days, 25 mg wettable powder at roots per strain, artificial paddy field), 23.8; in assay [6] (After 44 days, 25 mg wettable powder at roots per strain, artificial paddy field) it was 13.0; in assay [6] (After 51 days, 25 mg wettable powder at roots per strain, artificial paddy field) it was 88.5. Also, the “Browning stem ratio (%)” value in assay [7] (500 g/ha as wettable powder (Formulation Example 2) at rice roots, hatchlings released after 4 days) is on record as 0%. For the same molecule, the “Ratio to untreated (%)” value in assay [7] (browning stem ratio relative to untreated, 500 g/ha) was 0%. The same molecule registered a mortality at 0.025 ppm in [10] (0.025 ppm) of 50%. In assay [10] (0.1 ppm), this molecule registered a mortality at 0.1 ppm of 100%. Moreover, in [11] (setting [12]), the “Number of abnormal insects” value came to 7. The “Number of dead insects” value in assay [11] (setting [12]) was 6. For the same molecule, the “Number of normal insects” value in [11] (setting [12]) came out at 2. Further, the “Total number of sheaths formed by stylet insertion” value in assay [11] (fruit stained with fuchsine after examination) stood at 5. For the same molecule, the “Proportion of abnormal insects and dead insects on 4 days after releasing insects (%)” value in [11] (insects released 7 days after treatment) amounted to 86.7%.
Take `N#CCC[n+]1c(O)c(-c2cccc(C(F)F)c2)c(=O)n2ccccc21` [Compound 48, 1-(2-cyanoethyl)-3-(3-difluoromethylphenyl)-2-hydroxy-4-oxo-4H-pyrido[1,2-a]pyrimidinium inner salt]: the mortality at 0.01 ppm in [1] came to 0%. The mortality at 0.02 ppm in assay [1] amounted to 20%. Further, in [1], the mortality at 0.05 ppm worked out at 100%. For the same molecule, the mortality at 200 ppm in assay [1], in assay [3], in [8] and in assay [9] was at least 80% throughout.

Source of the values: patent US20180310564A1, “Mesoionic Compound” (Nippon Kayaku Kabushiki Kaisha, priority 2015, published 2018).
